The record followed here is publication PMC12377105, “Development of eugenol derivatives with 5-LOX inhibitory activity” (Journal of Enzyme Inhibition and Medicinal Chemistry, 2025).

This experiment has as its target T1, soybean lipoxygenase (model enzyme for 5-LOX) (Glycine max, UniProt P08170).
T1 sequence (P08170 1-839): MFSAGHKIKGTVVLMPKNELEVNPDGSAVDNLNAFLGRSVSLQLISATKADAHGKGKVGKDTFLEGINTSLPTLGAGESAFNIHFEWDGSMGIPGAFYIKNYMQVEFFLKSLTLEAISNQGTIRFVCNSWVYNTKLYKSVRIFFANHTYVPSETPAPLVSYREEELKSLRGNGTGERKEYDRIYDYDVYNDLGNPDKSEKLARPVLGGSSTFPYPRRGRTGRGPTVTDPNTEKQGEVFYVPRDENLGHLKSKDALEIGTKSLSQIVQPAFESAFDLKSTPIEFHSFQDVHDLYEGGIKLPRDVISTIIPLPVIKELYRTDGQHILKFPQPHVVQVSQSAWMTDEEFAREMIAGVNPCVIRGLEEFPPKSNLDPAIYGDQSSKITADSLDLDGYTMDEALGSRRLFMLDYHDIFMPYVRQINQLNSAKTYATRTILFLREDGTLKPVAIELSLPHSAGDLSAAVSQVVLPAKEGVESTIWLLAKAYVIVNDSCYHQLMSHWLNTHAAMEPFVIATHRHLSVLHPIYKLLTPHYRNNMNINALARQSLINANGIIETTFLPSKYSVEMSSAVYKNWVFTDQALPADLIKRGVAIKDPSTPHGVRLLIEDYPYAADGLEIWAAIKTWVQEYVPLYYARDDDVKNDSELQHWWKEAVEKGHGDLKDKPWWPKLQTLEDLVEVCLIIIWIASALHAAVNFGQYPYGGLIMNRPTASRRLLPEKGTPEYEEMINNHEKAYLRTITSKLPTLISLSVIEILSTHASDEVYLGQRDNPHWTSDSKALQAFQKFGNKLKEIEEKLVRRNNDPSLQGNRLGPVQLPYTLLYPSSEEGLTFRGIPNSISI
The experiment in a line: In vitro 5-LOX inhibition assay (soybean lipoxygenase, oxidation of linoleic acid at 234 nm). Particulars: for IC50: dose-response, concentration range 6.25-100 µM. It counts as biochemical. As for the experimental part: Soybean lipoxygenase (linoleate 13S-lipoxygenase) is widely accepted as a model enzyme to screen compounds for LOX inhibition due to the high degree of binding site similarity between plant LOXs and animal 5-LOX[20]. LOX inhibition was assessed at room temperature, following the oxidation of linoleic acid to 13-hydroperoxylinoleic acid at 234 nm, according to a described procedure. The assay was performed by adding 20 μL of each eugenol derivative (1.3 mM) dissolved in phosphate buffer, 200 μL of phosphate buffer (pH 9.0) and 20 μL of soybean lipoxygenase solution (100 U). After 5 min of incubation at room temperature, the reaction was initiated by the addition of 20 μL of linoleic acid (4.18 mM in ethanol), absorbance being monitored during 3 min, using a Multiskan GO plate reader (Thermo Fisher Scientific; Waltham, MA, USA). The inhibition of enzyme activity was then calculated by comparing the reaction rate with the control (no compound). Quercetin (50 μM, final concentration) was used as a positive control.

Setting [1] is: 100 µM, cell-free preliminary screening.

Several values for one entry are separate records, joined by “and”; a condition that tells them apart may be missing. Equal values may be shown once. Where only a bound is given, the exact number is not on record here.

For the molecule `COc1ccc(NCC(O)Cc2ccc(O)c(OC)c2)cc1` (stereo not drawn) [8g], the “5-LOX inhibitory activity (in words)” value under setting [1] is “statistically significant activity”.
As for `COc1cc(CC(O)CNc2ccc(C#N)cc2)ccc1O` (stereo not drawn) [8f], under setting [1], the “5-LOX inhibitory activity (in words)” value is “did not show statistically significant inhibition”.
For `COCC(O)Cc1ccc(O)c(OC)c1` (stereo not drawn) [7a], the “5-LOX inhibitory activity (in words)” value under setting [1] is “inactive”.
In the case of `COc1cc(CC(O)C[N+](=O)[O-])ccc1O` (stereo not drawn) [9a], the “5-LOX inhibitory activity (in words)” value under setting [1] is “did not show statistically significant inhibition”.
Consider `COc1cc(CC2CO2)ccc1OCCCOC(C)=O` (stereo not drawn) [5d, 3-(2-methoxy-4-(oxiran-2-ylmethyl)phenoxy)propyl acetate], for which the IC50 is < 100 µM and 36.9 µM. Also, the “5-LOX inhibitory activity (in words)” value under setting [1] is on record as “highly active”.
Turning to `C=CCc1ccc(OCCCC(=O)OCC)c(OC)c1` [4e, ethyl-4-(4-allyl-2-methoxyphenoxy)butanoate], the IC50 is < 100 µM and 76.2 µM. Moreover, the “5-LOX inhibitory activity (in words)” value under setting [1] is listed as “statistically significant reduction in 5-LOX activity”.
Regarding `COc1cccc(NCC(O)Cc2ccc(O)c(OC)c2)c1` (stereo not drawn) [8h], the “5-LOX inhibitory activity (in words)” value under setting [1] is given as “statistically significant activity”.
The same measure, in the same setting: the result for `COc1cc(CC2CO2)ccc1O` (stereo not drawn) [compound 6, 2-methoxy-4-(oxiran-2-ylmethyl)phenol] reads “did not show inhibitory activity”.
`COc1cc(CC(O)CNc2ccccc2)ccc1O` (stereo not drawn) [8e]: the “5-LOX inhibitory activity (in words)” value under setting [1] is “did not show statistically significant inhibition”.
Consider `COc1cc(CC(O)CNc2cccc(Br)c2)ccc1O` (stereo not drawn) [8i], for which, under setting [1], the “5-LOX inhibitory activity (in words)” value is recorded as “did not show statistically significant inhibition”.
For `CCCCCCC(C)NCC(O)Cc1ccc(OC)c(O)c1` (stereo not drawn) [8b], the “5-LOX inhibitory activity (in words)” value under setting [1] was “did not show statistically significant inhibition”.
Take `COc1cc(CC(O)COC(C)(C)C)ccc1O` (stereo not drawn) [7c, 4-(3-(tert-butoxy)-2-hydroxypropyl)-2-methoxyphenol]: the IC50 is < 100 µM and 33.8 µM. Besides, under setting [1], the “5-LOX inhibitory activity (in words)” value is listed as “almost full inhibition”.
As for `CCOCC(O)Cc1ccc(O)c(OC)c1` (stereo not drawn) [7b], under setting [1], the inhibition at 100 µM is around 30%.
As to `COc1cc(CC(O)CN2CCCCC2)ccc1O` (stereo not drawn) [8c], the “5-LOX inhibitory activity (in words)” value under setting [1] was “did not show statistically significant inhibition”.
The same measure, in the same setting: the result for `COc1cc(CC(O)COc2ccccc2)ccc1O` (stereo not drawn) [7f] reads “inactive”.
Take `C=CCc1ccc(O)c(O)c1` [compound 2, 4-allylbenzene-1,2-diol]: the IC50 is < 100 µM and 34 µM. Under setting [1], the “5-LOX inhibitory activity (in words)” value is “promising activity”.
Take `COc1cc(CC(O)CN(C)c2ccccc2)ccc1O` (stereo not drawn) [8d]: the “5-LOX inhibitory activity (in words)” value under setting [1] is recorded as “statistically significant activity”.
